Key:
human LPA1 = molecular target: T1, human LPA1 (Homo sapiens, UniProt Q92633); test: Antagonistic action on human LPA1: inhibition of LPA-stimulated increase in intracellular calcium ion concentration in human LPA1-CHO cells; type: cell-based; conditions: LPA 100 nM, Fluo-4/FLIPR calcium signal
T1 construct: expressed in transfected cells
Experimental: Antagonistic Action of Compound of Formula (I) on Human LPA1
The antagonistic action on a human LPA 1 was evaluated with an index of an inhibitory action on the LPA-stimulated increase in intracellular calcium ion concentration, using human LPA 1-CHO cells [cells in which human LPA1 receptors are stably expressed in CHO (dhfr gene-deficient) cell lines].
Establishment of human LPA1-CHO cells was performed based on the basic genetic engineering techniques.
The established cells were maintained by passage in a nucleic acid-free α-MEM medium (Invitrogen) containing 10% FBS, 1% penicillin/streptomycin (Invitrogen), and 100 nM methotrexate, and before experiment, the medium was replaced with a medium that had been reduced to 1% of the […] concentration, then seeded in 96-well plates to 1.5×10e^5 cells/100 μL/well, and incubated overnight.
On the day of experiment, a 0.5 μM Fluo-4 solution [a solution prepared by adding 20 mM HEPES (Sigma), […] probenecid (Nacalai Tesque), 0.05% BSA, 0.5 μM Fluo-4 AM (Dojindo Laboratories), and 0.1% Pluronic […] (Molecular Probe Co.) to a Hanks Balanced Solt Solution (Invitrogen)] was added to the cells, and Fluo-4 was loaded on the cells by incubating for 2 hours at room temperature.
After loading Fluo-4, the Fluo-4 solution was replaced with a reaction solution [a solution obtained by adding 20 mM HEPES, […] probenecid, and 0.05% BSA to a Hanks Balanced Solt Solution], and then measurement was performed using a device for measuring an intracellular calcium concentration (FLIPR tetra, Molecular Devices Inc.).
A reaction solution in which the compound of the formula (I) (with a final concentration of 0.1 nM to 10 μM) had been dissolved was added to each of the wells, the signals were measured over time for 4 minutes, then a reaction solution in which LPA (final concentration 100 nM) had been dissolved was added thereto, and the signals were measured over time for 2 minutes. The difference between the maximum and minimum response during one minute from addition of LPA was calculated. The inhibitory activity was calculated, with a response when LPA only (not including the compound) was added was taken as 0% inhibition, and a response when a reaction solution not including both of the compound and LPA was added was taken as 100% inhibition. Then the 50% inhibitory concentration was calculated as an IC50 value (nM).
Human LPA1-CHO cells used in the present test were the cells with the same sequence as described in the pamphlet of International Publication WO 99/19513 were used. Further, Ex represents Example No. as denoted below.

[1] = test system: LPA-induced increase in urethral pressure; test: Inhibitory action on LPA-induced increase in urethral pressure in rats under anesthesia; type: in vivo, rat (male Wistar); conditions: Rattus norvegicus, 5 min; 0.1 mg/kg intravenous, LPA (1-oleoyl) 3 mg/kg iv after 5 minutes, anesthetized rats, vs solvent; read-out: Inhibitory rate
Experimental: Inhibitory Action of Compound of Formula (I) on LPA-Induced Increase in Urethral Pressure in Rats Under Anesthesia (with Intravenous Administration at 0.1 mg/kg) Male Wistar rats (Charles River, 9- to 12-week old) were anesthetized with urethane (1.2 g/kg ip), and held in the supine position on an operating table kept at 37° C. The lower abdominal portion was midline-incised and the bladder was thus exposed. A small portion of the bladder apex was incised, a microchip pressure transducer (Millar) was inserted antegrade, and then placed in the urethra, and the urethral pressure was recorded continuously. In addition, a cannula for administration of a drug was placed into the femoral vein. After about 1 hour of stabilization, the compound of formula (I) (0.1 mg/kg) was administered intravenously. After 5 minutes, LPA (1-oleoyl) was administered intravenously at 3 mg/kg, and the changes in the urethral pressure were recorded. The inhibitory rates (%) of the compound of the formula (I) on the LPA-stimulated increase in the urethral pressure compared with those after administration of the solvent of the compound of the formula (I) were recorded.

[2] = Estimation of concentration in plasma after oral administration in rats using ex vivo bioassay method; conditions: male, Wistar, rat, 2 hours after oral administration, estimated by ex vivo bioassay from standard curve
Experimental: Estimation of Concentration in Plasma (2 Hours after Oral Administration) after Administration of Compound of Formula (I) in Rats Using Ex Vivo Bioassay Method
The concentration in the plasma after administration of the compound of the formula (I) in rats was estimated according to a bioassay method. That is, test compounds were orally administered to male Wistar rats (Charles River, 6-week old, and fasted), and after a certain period of time, blood was collected from the ophthalmic basilar plexus to give plasma. The compound was extracted from the plasma, and the extracted compound was dissolved in a certain amount of DMSO. Further, for the standard curve, the plasma in which the compounds at various concentrations had been dissolved was prepared separately, and the same extraction procedure was conducted.
The inhibitory action on the LPA-stimulated increase in the intracellular calcium ion concentration in LPA1-expressing cells in the DMSO extract was measured, and the plasma concentration in the individual after administration was estimated from the standard curve.

T1 sequence (Q92633 whole entry): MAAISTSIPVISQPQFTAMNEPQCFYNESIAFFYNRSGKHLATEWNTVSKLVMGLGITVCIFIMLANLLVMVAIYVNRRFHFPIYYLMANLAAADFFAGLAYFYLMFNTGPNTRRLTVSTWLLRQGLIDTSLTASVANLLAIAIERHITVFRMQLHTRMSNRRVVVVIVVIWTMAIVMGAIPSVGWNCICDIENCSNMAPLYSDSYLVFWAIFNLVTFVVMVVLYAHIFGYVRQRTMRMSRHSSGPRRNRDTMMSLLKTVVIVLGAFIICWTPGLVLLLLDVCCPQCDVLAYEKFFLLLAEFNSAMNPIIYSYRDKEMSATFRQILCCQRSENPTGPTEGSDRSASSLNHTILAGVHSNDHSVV

SMILES | IC50 (human LPA1) | inhibition in vivo at 0.1 mg/kg [1] | concentration at 2 h [2] | melting point
CCc1c(OC)cc(C(=O)N(CCCc2ccccc2)Cc2nc(C(=O)NS(=O)(=O)NC)c(C)s2)cc1OC [Example 153] | 0.021 µM | 21% | 5200 nM | 162 to 164 °C
COc1cc(C(=O)N(CCCc2ccccc2)Cc2nc(C(=O)N(C)S(N)(=O)=O)cs2)cc(OC)c1C [Example 9, N-(aminosulfonyl)-2-{[(3,5-dimethoxy-4-methylbenzoyl)(3-phenylpropyl)amino]methyl}-N-methyl-1,3-thiazole-4-carboxamide] |  | 28% | 8300 nM | 
CCNS(=O)(=O)NC(=O)c1csc(CN(CCCc2ccccc2)C(=O)c2cc(OC)c(C)c(OC)c2)n1 [Example 71] | 0.016 µM | 18% | 2100 nM | 143 to 144 °C
COc1ccc(C(O)C(=O)N(CCCc2ccccc2)Cc2nc(C(=O)NS(=O)(=O)N(C)C)c(C)s2)c(F)c1 (centres unmarked) [Example 27] | 0.014 µM |  | 6500 nM | 
COc1cc(C(=O)N(CCCc2ccccc2)Cc2nc(C(=O)NS(=O)(=O)N(C)CCF)c(C)s2)cc(OC)c1C [Example 100] |  |  | 6700 nM | 
COc1ccc(C(O)C(=O)N(CCCc2ccccc2)Cc2nc(C(=O)NS(N)(=O)=O)c(C)s2)cc1 (centres unmarked) [Example 176] | 0.024 µM |  | 4500 nM | 120 to 121 °C
COc1cc(C(=O)N(CCCc2ccccc2)Cc2nc(C(=O)NS(=O)(=O)N(CCO)CCF)cs2)cc(OC)c1C [Example 22, 2-{[(3,5-dimethoxy-4-methylbenzoyl)(3-phenylpropyl)amino]methyl}-N-{[(2-fluoroethyl)(2-hydroxyethyl)amino]sulfonyl}-1,3-thiazole-4-carboxamide] | 0.024 µM |  | 1300 nM | 
COC(=O)N(C)S(=O)(=O)NC(=O)c1csc(CN(CCCc2ccccc2)C(=O)c2cc(OC)c(C)c(OC)c2)n1 [Example 89] | 0.017 µM |  | 2400 nM | 135 to 137 °C
CNS(=O)(=O)NC(=O)c1nc(CN(CCCc2ccccc2)C(=O)c2cc(OC)c(C3CC3)c(OC)c2)sc1C [Example 156] | 0.015 µM |  | 2100 nM | 
COc1ccc(C2(C(=O)N(CCCc3ccccc3)Cc3nc(C(=O)NS(=O)(=O)N(C)C)c(C)s3)CC2)cc1 [Example 56] | 0.029 µM |  | 1800 nM | 
COc1cc(C(=O)N(CCCc2ccccc2)Cc2nc(C(=O)NS(=O)(=O)N(CCO)CCO)c(C)s2)cc(OC)c1C [Example 171] |  |  | 2200 nM | 
CONS(=O)(=O)NC(=O)c1nc(CN(CCCc2ccccc2)C(=O)c2cc(OC)cc(OC)c2)sc1C [Example 134] | 0.025 µM |  | 1400 nM | 
COc1cc(OC)cc(C(=O)N(CCCc2ccccc2)Cc2nc(C(=O)NS(C)(=O)=O)c(Cl)s2)c1 [Example 145] | 0.023 µM | 16% | 5600 nM | 113 to 114 °C
COc1ccc(CC(=O)N(CCCc2ccccc2)Cc2nc(C(=O)NS(=O)(=O)N(C)C)c(C)s2)c(OC)c1 [Example 126] | 0.02 µM |  | 8900 nM | 132 to 135 °C
CCN(CCO)S(=O)(=O)NC(=O)c1csc(CN(CCCc2ccccc2)C(=O)c2cc(OC)c(C)c(OC)c2)n1 [Example 170] | 0.034 µM |  | 1800 nM | 127 to 129 °C

From patent US8669246B2, “Substituted amide compound” (Astellas Pharma Inc., priority 2009, dated 2014)
